Measured values: paper PMC8819907 (Journal of Experimental & Clinical Cancer Research : CR, 2022)
Where “and” joins values, the source holds several entries; their conditions need not be identical. Equal values may be shown once. Read-outs that look alike come from different tables or passages of the source.

Assays:
[1] = tested on: advanced cancer patients with varying degrees of hepatic dysfunction
[2] = tested on: advanced cancer patients with varying degrees of hepatic dysfunction; settings: human, in vivo
[3] = cited from earlier work
[4] = tested on: RAF-mediated MEK1 activation; set-up: method as in ref 19 (a number printed in a supplementary file, which may have a reference list of its own: not looked up in the article's list); settings: read-out: IC50, inhibition of RAF-mediated MEK1 activation; cited from earlier work
[5] = tested on: panel of 183 kinases, including MEK5, CRAF, BRAF, ERK1, and ERK2; set-up: method as in ref 18 (a number printed in a supplementary file, which may have a reference list of its own: not looked up in the article's list); settings: cited from earlier work
HCT-116 xenograft = tested on: HCT-116 xenograft; set-up: method as in ref 17 (a number printed in a supplementary file, which may have a reference list of its own: not looked up in the article's list); settings: cited from earlier work
A549 xenograft = tested on: A549 xenograft; set-up: method as in ref 17 (a number printed in a supplementary file, which may have a reference list of its own: not looked up in the article's list); settings: cited from earlier work
[6] = tested on: PC3, BxPC3, and BT474 xenograft lines; settings: no tumor regressions; cited from earlier work
pERK = tested on: pERK; set-up: method as in ref 17 (a number printed in a supplementary file, which may have a reference list of its own: not looked up in the article's list); settings: cited from earlier work
[7] = set-up: method as in ref 17 (a number printed in a supplementary file, which may have a reference list of its own: not looked up in the article's list); settings: cited from earlier work
pERK, Ki67, and p27 = tested on: pERK, Ki67, and p27; set-up: method as in ref 19 (a number printed in a supplementary file, which may have a reference list of its own: not looked up in the article's list); settings: 2 mg QD, cited from earlier work
[8] = tested on: melanoma, pancreatic cancer, CRC; settings: cited from earlier work
CYP enzymes = settings: cited from earlier work
[9] = tested on: unresectable stage IIIC or IV cutaneous melanoma with BRAF V600E or V600K mutation; settings: cited from earlier work
[10] = tested on: acute myeloid leukemia or myelodysplastic syndrome; settings: cited from earlier work
KRAS-mutant NSCLC = tested on: KRAS-mutant NSCLC; set-up: method as in ref 24 (a number printed in a supplementary file, which may have a reference list of its own: not looked up in the article's list); settings: cited from earlier work
[11] = cited from earlier work; remark: listed apart in the source
[12] = 25° C; cited from earlier work
[13] = tested on: CYP enzymes; BCRP, MRP2, OATP1B1, OATP1B3, OATP2B1, OCT1, MATE1, P-gp, BSEP; settings: cited from earlier work
[14] = tested on: MRP2, BSEP, P-gp, BCRP, OATP1B1, OATP1B3, OAT1, OAT3, OCT2, MATE1; settings: cited from earlier work
clinical = settings: human, 2 mg
[15] = 13 patients with KRAS or NRAS mutations

## CC(=O)Nc1cccc(-n2c(=O)n(C3CC3)c(=O)c3c(Nc4ccc(I)cc4F)n(C)c(=O)c(C)c32)c1 [Trametinib, equimolecular combination of acetamide, N-[3-[3-cyclopropyl-5-[(2-fluoro-4-iodophenyl)amino]-3,4,6,7-tetrahydro6,8-dimethyl-2,4,7-trioxopyrido[4,3-d]pyrimidin-1(2H)-yl]phenyl] with 1,1’-sulfinylbis[methane]]
[1]; Mild 2 mg
  Death related to TRAEs: 0 (0%)
[1]; Mod DL1 1.5 mg
  Death related to TRAEs: 0 (0%)
[1]; Mod DL+1 2 mg
  Death related to TRAEs: 0 (0%)
[1]; Norm 2 mg
  Death related to TRAEs: 0 (0%)
[1]; Sev DL1 1 mg
  Death related to TRAEs: 0 (0%)
[1]; Sev DL+1 1.5 mg
  Death related to TRAEs: 0 (0%)
[1]; Total Patients
  Death related to TRAEs: 0 (0%)
[1]; Total Patients, listed as trametinib
  Death related to TRAEs: No treatment related deaths
[1]; human, in vivo
  Alanine aminotransferase increased: 9 (20%)
  Anemia: 10 (23%)
  Blood alkaline phosphatase increased: 9 (20%)
  Grade 3 TRAEs: 2 events
  Hypertension: 8 (18%)
  Hypomagnesemia: 8 (18%)
  Hyponatremia: 9 (20%)
  Maculopapular rash: 11 (23%)
  Mucositis: 6 (14%)
  Thrombocytopenia: 10 (23%)
  Treatment discontinuation due to TRAEs: 3 (7%)
  Treatment discontinuation due to non-TRAEs: 10 (23%)
  Vomiting: 9 (20%)
  grade 3 gamma-glutamyl transferase increased: 1 patient
  grade 3 pneumonitis: 1 patient
[2]
  RP2D: 2 mg QD
[3]; 64 ([…]) subjects with mild hepatic impairment (NCI classification)
  difference in exposure, mild hepatic impairment vs normal hepatic function: 2%
[3]; population PK analysis
  oral clearance and exposure, mild hepatic impairment vs normal hepatic function: not significantly different
[4]
  IC50: 0.6 nM
[5]
  specificity against a panel of 183 kinases: specificity of trametinib was confirmed
HCT-116 xenograft
  TGI: 83%
A549 xenograft
  TGI: 75%
[6]
  TGI: 44-46%
pERK; after the Day 7 dose
  duration of pERK inhibition: over 24 hours
pERK; first dose 3 mg/kg, Day 1
  duration of pERK reduction: more than 8 hours
[7]; Day 7, 3 mg/kg, read-out: average Cmax in blood
  Cmax: 1410 nM
[7]; mice
  estimated half-life (t1/2): 33 h
pERK, Ki67, and p27; BRAF or NRAS mutation-positive metastatic melanoma
  median inhibition of pERK: 62%
pERK, Ki67, and p27
  median increase in p27: 175%
  median inhibition of Ki67: 83%
[8]; 9 patients with BRAF wt melanoma
  partial response (PR): 2 patients
[8]; 14 patients with BRAF-mutant melanoma, 2 mg QD
  overall objective response rate (ORR): 43%
[8]; 14 patients with BRAF-mutant melanoma
  complete responses (CRs): 2
[8]; 26 evaluable pancreatic cancer patients
  PRs: 2
[8]; 28 patients with colorectal cancer
  objective responses: no objective responses
CYP enzymes
  inhibitor of CYP 1A2, 2A6, 2B6, 2C9, 2C19, 2D6 and 3A4: not an inhibitor
CYP enzymes; in vitro studies
  inhibitor of CYP1A2, CYP2A6, CYP2B6, CYP2D6, and CYP3A4: not an inhibitor
CYP enzymes; in vitro
  inhibitor of CYP 2C8: in vitro inhibitor
[9]
  CR, n (%): 4 (2%) n (%)
  Duration of response Median, months (95% CI): 5.5 (4.1, 5.9) months
  Objective Response Rate (95% CI): 22%
  PR, n (%): 43 (20%) n (%)
[9]; in vivo
  6-month OS rate: 81%
[9]; investigator-assessed
  PFS Median, months (95% CI): 4.8 (4.3, 4.9) months
[9]; trametinib vs chemotherapy, P<0.0001
  PFS HR (95% CI): 0.47 (0.34, 0.65)
[10]; [15]
  best response CRs: 3
  best response PD: 1
  best response SD: 7
[10]; 26 patients with wild-type RAS or unknown mutation
  PRs: 2
[10]; AML or MDS, 1-2 mg QD
  patients withdrew due to an AE: 23%
KRAS-mutant NSCLC
  median PFS: 11.7 weeks
  overall response rate (ORR): 12%
[11]; 2 subjects
  fecal excretion, of the radioactive dose: 39.2% and 35.0%
[11]; oral dose
  fecal excretion, of excreted radioactivity recovered: > 80%
  urinary excretion, of excreted radioactivity recovered: < 19%
  urinary excretion, of the radioactive dose: < 10%
[12]
  Approximate Solubility in water: < 0.1 µg/mL
[13]
  permeability: high permeability
[13]; in vitro
  substrate of CYP enzymes: not a substrate
  substrate of human BCRP, MRP2, OATP1B1, OATP1B3, OATP2B1, OCT1 or MATE1 transporters: not a substrate
[13]; not expected to be clinically relevant
  substrate for P-gp and BSEP: substrate
[14]; at systemic concentrations that are not clinically relevant
  inhibitor of P-gp, BCRP, OATP1B1, OATP1B3, OAT1, OAT3, OCT2 and MATE1: in vitro inhibitor
[14]
  inhibitor of MRP2 or BSEP: not an inhibitor
clinical; in vivo
  Cmax: 27.6 ng/mL
clinical; plasma, oral, AUC0 − 24, Geo mean (%CV), Mild (n = 6), dose normalized to 2 mg
  AUC(0-t): 352 ng·h/mL
clinical; plasma, oral, AUC0 − 24, Geo mean (%CV), Mod (n = 3), dose normalized to 2 mg
  AUC(0-t): 311 ng·h/mL
clinical; plasma, oral, AUC0 − 24, Geo mean (%CV), Sev (n = 3), dose normalized to 2 mg
  AUC(0-t): 229 ng·h/mL
clinical; plasma, oral, AUC0 − 24, Mean (±SD), Mild (n = 6), dose normalized to 2 mg
  AUC(0-t): 388 ng·h/mL
clinical; plasma, oral, AUC0 − 24, Mean (±SD), Mod (n = 3), dose normalized to 2 mg
  AUC(0-t): 312 ng·h/mL
clinical; plasma, oral, AUC0 − 24, Mean (±SD), Norm (n = 10), dose normalized to 2 mg
  AUC(0-t): 469 ng·h/mL
clinical; plasma, oral, AUC0 − 24, Mean (±SD), Sev (n = 3), dose normalized to 2 mg
  AUC(0-t): 240 ng·h/mL
clinical; plasma, oral, Cmax, Geo mean (%CV), Mild (n = 6), dose normalized to 2 mg
  Cmax: 26.2 ng/mL
clinical; plasma, oral, Cmax, Geo mean (%CV), Mod (n = 3), dose normalized to 2 mg
  Cmax: 16.8 ng/mL
clinical; plasma, oral, Cmax, Geo mean (%CV), Norm (n = 10), dose normalized to 2 mg
  Cmax: 26.2 ng/mL
clinical; plasma, oral, Cmax, Geo mean (%CV), Sev (n = 3), dose normalized to 2 mg
  Cmax: 15.3 ng/mL
clinical; plasma, oral, Cmax, Mean (±SD), Mild (n = 6), dose normalized to 2 mg
  Cmax: 29.5 ng/mL
clinical; plasma, oral, Cmax, Mean (±SD), Mod (n = 3), dose normalized to 2 mg
  Cmax: 16.9 ng/mL
